According to patent US5156956A, “Transgultaminase” (Ajinomoto Co., Inc., priority 1987, dated 1992):
Residues, ends and D or L forms follow the SMILES beside them. *: point of attachment. Cbz = O=C(OCc1ccccc1)*

Legend:
[1] = target: T1, BTG-1 (Streptomyces mobaraensis, UniProt P81453); test: Influence of metal ions on activity; format: biochemical, Streptoverticillium mobaraense IFO 13819; settings: metal ion 1 mM; None = 100; 30 min
T1 construct: BTGase is dissolved in the culture solution and can be harvested from the culture filtrate; endogenous in cells; host or cells: Streptoverticillium mobaraense IFO 13819 (natural producer; purified from culture filtrate)
T1 sequence (P81453 77-407): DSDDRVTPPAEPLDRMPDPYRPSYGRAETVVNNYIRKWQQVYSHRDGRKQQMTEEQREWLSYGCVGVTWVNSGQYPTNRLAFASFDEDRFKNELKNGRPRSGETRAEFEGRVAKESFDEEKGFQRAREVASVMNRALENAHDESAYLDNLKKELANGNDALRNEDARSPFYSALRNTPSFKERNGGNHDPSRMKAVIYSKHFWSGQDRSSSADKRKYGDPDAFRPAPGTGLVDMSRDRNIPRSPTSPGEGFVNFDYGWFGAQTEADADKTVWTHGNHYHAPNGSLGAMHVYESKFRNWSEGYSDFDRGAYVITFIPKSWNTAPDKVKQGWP
Method: (§1) Measurement of the activity of BTGase is carried out by performing a reaction using benzyloxycarbonyl-L-glutaminyl glycine and hydroxylamine as substrates in the absence of Ca^2+, forming an iron complex with the resulting hydroxamic acid in the presence of trichloroacetic acid, measuring absorption at 525 nm and determining the amount of hydroxamic acid by a calibration curve to calculate the activity. The BTGase activity is measured by the method described below, unless otherwise indicated.
(§2) To 0.05 ml of an enzyme solution is added 0.5 ml of Reagent A and they are mixed with each other. After reacting at 37° C. for 30 minutes, Reagent B is added thereto to discontinue the reaction and form an Fe complex. Thereafter, absorbance is measured at 525 nm. […] Separately, a calibration curve is prepared using L-glutamic acid γ-monohydroxamio acid instead of the enzyme solution, and the amount of hydroxamic acid produced is determined by the difference in absorbance described above. An enzyme activity which produces 1 μmol of hydroxamic acid per 1 minute is defined as 1 unit.

[2] = target: T2, BTG-2 (Streptomyces griseocarneus, UniProt A0ABX7RSJ1); format: biochemical, Streptoverticillium griseocarneum IFO 12776; settings: metal ion 1 mM; None = 100; 30 min
T2 construct: Ca2+-independent; made as pre-pro-protein
Method: as §1, §2

[3] = target: T3, BTG-3 (Streptomyces cinnamoneus, UniProt Q8GR90); test: Influence of metal ions on activity; format: biochemical; settings: metal ion 1 mM; None = 100; 30 min
T3 construct: Ca2+-independent; made as pre-pro-protein
T3 sequence (Q8GR90 86-416): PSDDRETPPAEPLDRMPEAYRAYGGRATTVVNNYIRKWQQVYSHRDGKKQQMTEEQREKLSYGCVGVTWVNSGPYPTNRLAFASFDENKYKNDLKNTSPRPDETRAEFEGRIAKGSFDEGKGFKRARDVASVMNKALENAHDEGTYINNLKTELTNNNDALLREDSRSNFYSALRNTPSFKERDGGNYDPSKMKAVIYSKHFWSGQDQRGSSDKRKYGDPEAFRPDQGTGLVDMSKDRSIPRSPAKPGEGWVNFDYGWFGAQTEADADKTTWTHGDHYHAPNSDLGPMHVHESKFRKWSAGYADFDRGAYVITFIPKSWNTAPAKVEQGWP
Method: as §1, §2

[4] = target: T1, BTG-1; test: Substrate specificity: synthetic substrates with hydroxylamine; format: biochemical, Streptoverticillium mobaraense IFO 13819; settings: for Reactivity of substrate with BTG-1 (relative, Table 1): substrate 5 mM, with hydroxylamine; for Substrate specificity (%) BTG-1: Table 4
Method: as §1, §2
(§3) Using each BTGase, reactions of various synthetic substrates with hydroxylamine were examined. […] In this case, the concentration of various synthetic substrates is 5 mM. In the table, CBZ, Gln, Gly and Asn are abbreviations for benzyloxycarbonyl group, glutaminyl group, glycyl group and asparaginyl group, respectively.

[5] = target: T2, BTG-2; test: as above; format: biochemical, Streptoverticillium griseocarneum IFO 12776; settings: for Reactivity of substrate with BTG-2 (relative, Table 1): substrate 5 mM, with hydroxylamine; for Substrate specificity (%) BTG-2: Table 4
Method: as §1, §2, §3

[6] = target: T3, BTG-3; test: as above; format: biochemical; settings: for Reactivity of substrate with BTG-3 (relative, Table 1): substrate 5 mM, with hydroxylamine; for Substrate specificity (%) BTG-3: Table 4
Method: as §1, §2, §3

[7] = test system: BTGase; test: Substrate specificity, statement on all BTGases; format: biochemical, Streptoverticillium; settings: substrate 5 mM, with hydroxylamine
Method: as §3

[8] = target: T4, MTGase (transglutaminase of guinea pig liver) (UniProt P08587); test: Substrate specificity: synthetic substrates; format: biochemical; settings: Table 4
T4 construct: from tissue; host or cells: guinea pig liver
T4 sequence (P08587 1-690): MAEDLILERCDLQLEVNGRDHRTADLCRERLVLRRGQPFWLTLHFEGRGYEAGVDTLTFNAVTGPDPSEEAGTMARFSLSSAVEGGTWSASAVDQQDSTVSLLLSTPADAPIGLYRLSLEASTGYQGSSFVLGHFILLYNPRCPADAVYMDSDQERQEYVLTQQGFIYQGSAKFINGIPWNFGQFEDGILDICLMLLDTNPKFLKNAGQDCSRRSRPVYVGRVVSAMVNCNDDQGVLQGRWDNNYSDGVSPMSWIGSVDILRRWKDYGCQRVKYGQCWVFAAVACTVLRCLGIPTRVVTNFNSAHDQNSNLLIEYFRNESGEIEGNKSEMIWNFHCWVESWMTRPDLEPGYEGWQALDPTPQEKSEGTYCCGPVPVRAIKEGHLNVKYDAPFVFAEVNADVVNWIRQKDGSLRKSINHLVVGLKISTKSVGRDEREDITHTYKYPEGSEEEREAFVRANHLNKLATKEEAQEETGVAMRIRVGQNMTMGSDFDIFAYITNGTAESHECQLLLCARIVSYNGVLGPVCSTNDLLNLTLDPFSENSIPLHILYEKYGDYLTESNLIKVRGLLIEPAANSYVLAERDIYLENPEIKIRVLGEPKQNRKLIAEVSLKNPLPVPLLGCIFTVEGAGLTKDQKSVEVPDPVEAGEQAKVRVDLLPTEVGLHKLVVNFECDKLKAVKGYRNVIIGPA
Method: Next, properties of BTGases are compared to those of guinea pig liver-derived transglutaminase. The guinea pig liver-derived transglutaminase was prepared by the method described in Published Unexamined Japanese Patent Application No. 149645/83. As will be apparent from Tables 4 and 5, various differences in enzymological properties are noted between transglutaminase of guinea pig liver (hereafter referred to as MTGase) which has been mainly investigated heretofore and BTGases derived from actinomycetes; in particular, differences are noted in temperature stability, molecular weight, isoelectric point and substrate specificity. Further, a difference is noted in that the BTGases of the present invention act in the presence and absence of Ca^2+. Therefore, the respective enzymes of the present invention are different from MTGase in their properties.

[9] = target: T1, BTG-1; test: biochemical; parameters: species or system Streptoverticillium mobaraense IFO 13819
Method: as §1, §2

[10] = target: T2, BTG-2; test: biochemical; parameters: species or system Streptoverticillium griseocarneum IFO 12776
Method: as §1, §2

[11] = target: T3, BTG-3; test: biochemical
Method: as §1, §2

[12] = inhibitor 1 mM, 25° C. for 30 minutes, None = 100

| Structure (SMILES) | BTG-1 (%) activity with metal ion [1] [%] | BTG-2 (%) activity with metal ion [2] [%] | BTG-3 (%) activity with metal ion [3] [%] | Reactivity of substrate with BTG-1 (relative, Table 1) [4] | Reactivity of substrate with BTG-2 (relative, Table 1) [5] | Reactivity of substrate with BTG-3 (relative, Table 1) [6] | also measured |
| --- | --- | --- | --- | --- | --- | --- | --- |
| [Ba+2].[Cl-].[Cl-] [BaCl2] | 101 | 99 | 105 | – | – | – | – |
| NC(=O)C[C@H](NC(=O)OCc1ccccc1)C(=O)NCC(=O)O [CBZ--Asn--Gly, benzyloxycarbonylasparaginyl glycine] (Cbz-Asn-Gly-OH) | – | – | – | 0 | 0 | 0 | Reactivity of synthetic substrate with the BTGases (in words) [7]: No BTGase reacts |
| NC(=O)CC[C@H](NC(=O)OCc1ccccc1)C(=O)O [CBZ--Gln, benzyloxycarbonyl glutamine] | – | – | – | 0 | 0 | 0 | Reactivity of synthetic substrate with the BTGases (in words) [7]: No BTGase reacts |
| NC(=O)CC[C@H](NC(=O)OCc1ccccc1)C(=O)N[C@@H](CCC(N)=O)C(=O)NCC(=O)O [CBZ--Gln--Gln--Gly] (Cbz-Gln-Gln-Gly-OH) | – | – | – | 38 | 39 | 35 | Substrate specificity (%) BTG-1 [4]: 38%; Substrate specificity (%) BTG-2 [5]: 39%; Substrate specificity (%) BTG-3 [6]: 35%; Substrate specificity (%) MTGase [8]: 288% |
| CCOC(=O)CNC(=O)[C@H](CCC(N)=O)NC(=O)OCc1ccccc1 [CBZ--Gln--Gly--OEt] (Cbz-Gln-Gly-OEt) | – | – | – | 63 | 44 | 42 | Substrate specificity (%) BTG-1 [4]: 63%; Substrate specificity (%) BTG-2 [5]: 44%; Substrate specificity (%) BTG-3 [6]: 42%; Substrate specificity (%) MTGase [8]: 122% |
| NC(=O)CC[C@H](NC(=O)CNC(=O)OCc1ccccc1)C(=O)NCC(=O)NCC(=O)O [CBZ--Gly--Gln--Gly--Gly] (Cbz-GQGG-OH) | – | – | – | 8 | 12 | 11 | Substrate specificity (%) BTG-1 [4]: 8%; Substrate specificity (%) BTG-2 [5]: 12%; Substrate specificity (%) BTG-3 [6]: 11%; Substrate specificity (%) MTGase [8]: 126% |
| NC(=O)CC[C@H](NC(=O)CNC(=O)CNC(=O)OCc1ccccc1)C(=O)NCC(=O)O [CBZ--Gly--Gly--Gln--Gly] (Cbz-GGQG-OH) | – | – | – | 23 | 58 | 60 | Substrate specificity (%) BTG-1 [4]: 23%; Substrate specificity (%) BTG-2 [5]: 58%; Substrate specificity (%) BTG-3 [6]: 60%; Substrate specificity (%) MTGase [8]: 27% |
| [Cl-].[Cl-].[Co+2] [CoCl2] | 103 | 103 | 103 | – | – | – | – |
| O=C(O)CN(CCN(CC(=O)O)CC(=O)O)CC(=O)O [EDTA] | – | – | – | – | – | – | inhibition at 1000 µM ([9]; read-out: BTG-1 (%) activity with inhibitor): 102%; inhibition at 1000 µM ([10]; read-out: BTG-2 (%) activity with inhibitor): 98%; inhibition at 1000 µM ([11]; read-out: BTG-3 (%) activity with inhibitor): 99% |
| [Cl][Fe]([Cl])[Cl] [FeCl3] | 96 | 104 | 106 | – | – | – | – |
| NCC(=O)N[C@@H](CCC(N)=O)C(=O)NCC(=O)O [Gly--Gln--Gly, glycylglutaminyl glycine] (H-Gly-Gln-Gly-OH) | – | – | – | 0 | 0 | 0 | Reactivity of synthetic substrate with the BTGases (in words) [7]: No BTGase reacts |
| [Cl-].[K+] [KCl] | 96 | 99 | 105 | – | – | – | – |
| [Cl-].[Cl-].[Mg+2] [MgCl2] | – | 104 | 103 | – | – | – | – |
| [Cl][Mn][Cl] [MnCl2] | – | 97 | 97 | – | – | – | – |
| [Cl-].[Na+] [NaCl] | 99 | 102 | 101 | – | – | – | – |
| [Cl][Ni][Cl] [NiCl2] | – | 100 | – | – | – | – | – |
| O=S(=O)(F)Cc1ccccc1 [PMSF, phenylmethylsulfonyl fluoride] | – | – | – | – | – | – | BTG-1 (%) activity with inhibitor [9, 12]: 104%; BTG-2 (%) activity with inhibitor [10, 12]: 95%; BTG-3 (%) activity with inhibitor [11, 12]: 101% |
| CC(=O)[O-].CC(=O)[O-].[Pb+2] [Pb(CH3 COO)2] | 97 | 97 | 100 | – | – | – | – |
| [Cl-].[Cl-].[Sr+2] [SrCl2] | 100 | 101 | 100 | – | – | – | – |
